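Interpolation was linear, between the two tested concentrations surrounding the appropriate level; five concentrations were tested over 48 hours in 96-well plates. GI50 marks 50% less growth. At the TGI there is no net growth.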
What follows are molecules tested on SN12C renal (assay: growth of human tumour cells (NCI), 48 h).
With `CC(=O)OC1CC2c3cccc4c3C(CC2N(C)C1=O)CN4C(=O)c1ccccc1` (stereo not drawn) the TGI was 56.8 µM.

What follows are molecules tested on CAKI-1 renal (assay: growth of human tumour cells (NCI), 48 h).
`COc1ccc(C[N+]23C(CC[C@H]2c2ccccc2)CC[C@H]3c2ccccc2)cc1` (stereo partly drawn) showed a TGI greater than 100 µM.
`CC(=O)c1sc2c(c1OC(=O)c1cccs1)c(=O)n(-c1ccccc1)c(=S)n2-c1ccccc1` was tested, and the TGI was 61.1 µM.
With `NS(=O)(=O)c1ccc(-n2c(-c3cccs3)nc3ccc(I)cc3c2=O)cc1` the TGI was 36.6 µM.
With `CCOC(=O)CC1c2ccc(O)cc2OC(=O)C1c1ccc([N+](=O)[O-])cc1` (stereo not drawn) the TGI was 94.5 µM.
`CCOC(=O)C1(C(=O)OCC)CN(CC)CN(c2ccccc2)C1` gave a TGI of 31.8 µM.
`CC(=O)OC1CC2c3cccc4c3C(CC2N(C)C1=O)CN4C(=O)c1ccccc1` (stereo not drawn) was tested, and the TGI was 54.8 µM.

The molecules below were run on SNB-19 CNS (assay: growth of human tumour cells (NCI), 48 h).
`COc1ccc(C[N+]23C(CC[C@H]2c2ccccc2)CC[C@H]3c2ccccc2)cc1` (stereo partly drawn) gave a TGI greater than 100 µM.
`CC(=O)c1sc2c(c1OC(=O)c1cccs1)c(=O)n(-c1ccccc1)c(=S)n2-c1ccccc1` showed a TGI of 44.8 µM.
With `NS(=O)(=O)c1ccc(-n2c(-c3cccs3)nc3ccc(I)cc3c2=O)cc1` the TGI was 70.6 µM.
Molecule `CCOC(=O)CC1c2ccc(O)cc2OC(=O)C1c1ccc([N+](=O)[O-])cc1` (stereo not drawn) has a TGI greater than 100 µM.
Molecule `CCOC(=O)C1(C(=O)OCC)CN(CC)CN(c2ccccc2)C1` has a TGI greater than 100 µM.
`COC1=C(Br)[C@H](O)[C@@]2(C=C1Br)CC(C(=O)NCCCCCN=C(N)N)=NO2` showed a TGI greater than 10 µM.
With `CC(=O)OC1CC2c3cccc4c3C(CC2N(C)C1=O)CN4C(=O)c1ccccc1` (stereo not drawn) the TGI was greater than 100 µM.

Each molecule was assayed on CCRF-CEM leukemia (assay: growth of human tumour cells (NCI), 48 h).
In the case of `COc1ccc(C[N+]23C(CC[C@H]2c2ccccc2)CC[C@H]3c2ccccc2)cc1` (stereo partly drawn), the TGI was greater than 100 µM.
`CC(=O)c1sc2c(c1OC(=O)c1cccs1)c(=O)n(-c1ccccc1)c(=S)n2-c1ccccc1` was tested, and the TGI was 22.6 µM.
In the case of `NS(=O)(=O)c1ccc(-n2c(-c3cccs3)nc3ccc(I)cc3c2=O)cc1`, the GI50 was 41.2 µM and the TGI was greater than 100 µM.
With `CCOC(=O)CC1c2ccc(O)cc2OC(=O)C1c1ccc([N+](=O)[O-])cc1` (stereo not drawn) the TGI was 62.1 µM.
For `CCOC(=O)C1(C(=O)OCC)CN(CC)CN(c2ccccc2)C1`, the TGI was 59.1 µM.
With `COC1=C(Br)[C@H](O)[C@@]2(C=C1Br)CC(C(=O)NCCCCCN=C(N)N)=NO2` the TGI was greater than 10 µM.
Work on `CC(=O)OC1CC2c3cccc4c3C(CC2N(C)C1=O)CN4C(=O)c1ccccc1` (stereo not drawn) yielded a TGI greater than 100 µM.

Each molecule was assayed on COLO 205 colon (assay: growth of human tumour cells (NCI), 48 h).
For `COc1ccc(C[N+]23C(CC[C@H]2c2ccccc2)CC[C@H]3c2ccccc2)cc1` (stereo partly drawn), the TGI was 21.4 µM.
For `CC(=O)c1sc2c(c1OC(=O)c1cccs1)c(=O)n(-c1ccccc1)c(=S)n2-c1ccccc1`, the TGI was 32.5 µM.
`NS(=O)(=O)c1ccc(-n2c(-c3cccs3)nc3ccc(I)cc3c2=O)cc1` gave a TGI of 40.3 µM.
In the case of `CCOC(=O)CC1c2ccc(O)cc2OC(=O)C1c1ccc([N+](=O)[O-])cc1` (stereo not drawn), the TGI was 33 µM.
`CCOC(=O)C1(C(=O)OCC)CN(CC)CN(c2ccccc2)C1` was tested, and the TGI was 34.8 µM.
Work on `COC1=C(Br)[C@H](O)[C@@]2(C=C1Br)CC(C(=O)NCCCCCN=C(N)N)=NO2` yielded a TGI greater than 10 µM.
In the case of `CC(=O)OC1CC2c3cccc4c3C(CC2N(C)C1=O)CN4C(=O)c1ccccc1` (stereo not drawn), the TGI was 56.1 µM.

What follows are molecules tested on SF-539 CNS (assay: growth of human tumour cells (NCI), 48 h).
Work on `CC(=O)c1sc2c(c1OC(=O)c1cccs1)c(=O)n(-c1ccccc1)c(=S)n2-c1ccccc1` yielded a TGI of 6.26 µM.
`CCOC(=O)CC1c2ccc(O)cc2OC(=O)C1c1ccc([N+](=O)[O-])cc1` (stereo not drawn) was tested, and the TGI was greater than 100 µM.
With `CCOC(=O)C1(C(=O)OCC)CN(CC)CN(c2ccccc2)C1` the TGI was 41.2 µM.
With `COC1=C(Br)[C@H](O)[C@@]2(C=C1Br)CC(C(=O)NCCCCCN=C(N)N)=NO2` the TGI was greater than 10 µM.
Molecule `CC(=O)OC1CC2c3cccc4c3C(CC2N(C)C1=O)CN4C(=O)c1ccccc1` (stereo not drawn) has a TGI of 93.9 µM.

What follows are molecules tested on PC-3 prostate (assay: growth of human tumour cells (NCI), 48 h).
`COc1ccc(C[N+]23C(CC[C@H]2c2ccccc2)CC[C@H]3c2ccccc2)cc1` (stereo partly drawn) gave a TGI of 92.1 µM.
`CC(=O)c1sc2c(c1OC(=O)c1cccs1)c(=O)n(-c1ccccc1)c(=S)n2-c1ccccc1` showed a TGI of 15.2 µM.
Work on `NS(=O)(=O)c1ccc(-n2c(-c3cccs3)nc3ccc(I)cc3c2=O)cc1` yielded a TGI of 81.9 µM.
With `CCOC(=O)CC1c2ccc(O)cc2OC(=O)C1c1ccc([N+](=O)[O-])cc1` (stereo not drawn) the TGI was 67.2 µM.
`COC1=C(Br)[C@H](O)[C@@]2(C=C1Br)CC(C(=O)NCCCCCN=C(N)N)=NO2` was tested, and the TGI was greater than 10 µM.
In the case of `CC(=O)OC1CC2c3cccc4c3C(CC2N(C)C1=O)CN4C(=O)c1ccccc1` (stereo not drawn), the TGI was 79.6 µM.

The molecules below were run on SF-295 CNS (assay: growth of human tumour cells (NCI), 48 h).
Work on `COc1ccc(C[N+]23C(CC[C@H]2c2ccccc2)CC[C@H]3c2ccccc2)cc1` (stereo partly drawn) yielded a TGI of 61.7 µM.
In the case of `CC(=O)c1sc2c(c1OC(=O)c1cccs1)c(=O)n(-c1ccccc1)c(=S)n2-c1ccccc1`, the TGI was 7.13 µM.
Molecule `NS(=O)(=O)c1ccc(-n2c(-c3cccs3)nc3ccc(I)cc3c2=O)cc1` has a TGI of 75.8 µM.
Molecule `CCOC(=O)CC1c2ccc(O)cc2OC(=O)C1c1ccc([N+](=O)[O-])cc1` (stereo not drawn) has a TGI greater than 100 µM.
With `CCOC(=O)C1(C(=O)OCC)CN(CC)CN(c2ccccc2)C1` the TGI was greater than 100 µM.
For `COC1=C(Br)[C@H](O)[C@@]2(C=C1Br)CC(C(=O)NCCCCCN=C(N)N)=NO2`, the TGI was greater than 10 µM.
`CC(=O)OC1CC2c3cccc4c3C(CC2N(C)C1=O)CN4C(=O)c1ccccc1` (stereo not drawn) gave a TGI of 69.5 µM.

These molecules were tested on SK-OV-3 ovarian (assay: growth of human tumour cells (NCI), 48 h).
`COc1ccc(C[N+]23C(CC[C@H]2c2ccccc2)CC[C@H]3c2ccccc2)cc1` (stereo partly drawn) gave a TGI of 87.7 µM.

Reference: PubChem BioAssay (NCI)
